From PubChem BioAssay (NCI)
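The compound was tested at five concentrations on cells cultured in 96-well plates, with a 48-hour exposure period. GI50 is the concentration that inhibits growth by half. At the TGI there is no net growth.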

How the values were obtained:
Assay in all cases: inhibition of tumour cell growth, NCI panel, 48 h
OVCAR-5 ovarian = tested on: OVCAR-5 ovarian
NCI-H226 lung = tested on: NCI-H226 lung
SK-MEL-2 melanoma = tested on: SK-MEL-2 melanoma
M14 melanoma = tested on: M14 melanoma
NCI/ADR-RES ovarian = tested on: NCI/ADR-RES ovarian
NCI-H460 lung = tested on: NCI-H460 lung
SF-268 CNS = tested on: SF-268 CNS
786-0 renal = tested on: 786-0 renal
IGROV1 ovarian = tested on: IGROV1 ovarian
COLO 205 colon = tested on: COLO 205 colon
SR leukemia = tested on: SR leukemia
HCC-2998 colon = tested on: HCC-2998 colon
UO-31 renal = tested on: UO-31 renal
SNB-19 CNS = tested on: SNB-19 CNS
MDA-MB-435 = tested on: MDA-MB-435
KM12 colon = tested on: KM12 colon
NCI-H522 lung = tested on: NCI-H522 lung
T-47D breast = tested on: T-47D breast
CAKI-1 renal = tested on: CAKI-1 renal
HS 578T breast = tested on: HS 578T breast
HOP-62 NSCLC = tested on: HOP-62 NSCLC
HL-60(TB) leukemia = tested on: HL-60(TB) leukemia
LOX IMVI melanoma = tested on: LOX IMVI melanoma
OVCAR-4 ovarian = tested on: OVCAR-4 ovarian
RXF 393 renal = tested on: RXF 393 renal
A549 NSCLC = tested on: A549 NSCLC
TK-10 renal = tested on: TK-10 renal
PC-3 prostate = tested on: PC-3 prostate
OVCAR-3 ovarian = tested on: OVCAR-3 ovarian
OVCAR-8 ovarian = tested on: OVCAR-8 ovarian
UACC-257 melanoma = tested on: UACC-257 melanoma
SF-539 CNS = tested on: SF-539 CNS
SW-620 colon = tested on: SW-620 colon
SK-MEL-28 melanoma = tested on: SK-MEL-28 melanoma
NCI-H23 lung = tested on: NCI-H23 lung
MDA-MB-231 breast = tested on: MDA-MB-231 breast
SK-OV-3 ovarian = tested on: SK-OV-3 ovarian
DU-145 prostate = tested on: DU-145 prostate
UACC-62 melanoma = tested on: UACC-62 melanoma
ACHN renal = tested on: ACHN renal
CCRF-CEM leukemia = tested on: CCRF-CEM leukemia
HT29 colon = tested on: HT29 colon
MALME-3M melanoma = tested on: MALME-3M melanoma
MOLT-4 leukemia = tested on: MOLT-4 leukemia
HCT-15 colon = tested on: HCT-15 colon
SN12C renal = tested on: SN12C renal
A498 renal = tested on: A498 renal
U251 CNS = tested on: U251 CNS
SK-MEL-5 melanoma = tested on: SK-MEL-5 melanoma
RPMI-8226 leukemia = tested on: RPMI-8226 leukemia
BT-549 breast = tested on: BT-549 breast
HCT-116 colon = tested on: HCT-116 colon
K-562 leukemia = tested on: K-562 leukemia
MCF7 breast = tested on: MCF7 breast

CN(C)c1ccc(O)c2c1CC1CC3C(N(C)C)C(=O)C(C(N)=O)=C(O)C3(O)C(=O)C1=C2O (stereo not drawn)
GI50 (OVCAR-5 ovarian): 15.6 µM
TGI (OVCAR-5 ovarian): > 100 µM
GI50 (NCI-H226 lung): 20.6 µM
TGI (NCI-H226 lung): > 100 µM
GI50 (SK-MEL-2 melanoma): 5.66 µM
TGI (SK-MEL-2 melanoma): 22.9 µM
GI50 (M14 melanoma): 11.2 µM
TGI (M14 melanoma): > 100 µM
GI50 (NCI/ADR-RES ovarian): 17.3 µM
TGI (NCI/ADR-RES ovarian): 73.6 µM
GI50 (NCI-H460 lung): 10.6 µM
TGI (NCI-H460 lung): 29.6 µM
GI50 (SF-268 CNS): 18.9 µM
TGI (SF-268 CNS): 92.3 µM
GI50 (786-0 renal): 11.5 µM
TGI (786-0 renal): 39.7 µM
GI50 (IGROV1 ovarian): 5.78 µM
TGI (IGROV1 ovarian): 24.2 µM
GI50 (COLO 205 colon): 13.7 µM
TGI (COLO 205 colon): 27 µM
GI50 (SR leukemia): 15.7 µM
TGI (SR leukemia): > 100 µM
GI50 (HCC-2998 colon): 11.9 µM
TGI (HCC-2998 colon): 39.1 µM
GI50 (UO-31 renal): 7.47 µM
TGI (UO-31 renal): 73 µM
GI50 (SNB-19 CNS): 18.8 µM
TGI (SNB-19 CNS): > 100 µM
GI50 (MDA-MB-435): 17.9 µM
TGI (MDA-MB-435): > 100 µM
GI50 (KM12 colon): 13.1 µM
TGI (KM12 colon): 32.2 µM
GI50 (NCI-H522 lung): 13.6 µM
TGI (NCI-H522 lung): 46 µM
GI50 (T-47D breast): 27.7 µM
TGI (T-47D breast): > 100 µM
GI50 (CAKI-1 renal): 5.74 µM
TGI (CAKI-1 renal): 91.4 µM
GI50 (HS 578T breast): 14.4 µM
TGI (HS 578T breast): 59.4 µM
GI50 (HOP-62 NSCLC): 19.1 µM
TGI (HOP-62 NSCLC): 62.9 µM
GI50 (HL-60(TB) leukemia): 12.7 µM
TGI (HL-60(TB) leukemia): 48.9 µM
GI50 (LOX IMVI melanoma): 6.21 µM
TGI (LOX IMVI melanoma): 37.3 µM
GI50 (OVCAR-4 ovarian): 24.2 µM
TGI (OVCAR-4 ovarian): > 100 µM
GI50 (RXF 393 renal): 4.84 µM
TGI (RXF 393 renal): 21.6 µM
GI50 (A549 NSCLC): 9.43 µM
TGI (A549 NSCLC): 59.2 µM
GI50 (TK-10 renal): 5.66 µM
TGI (TK-10 renal): 35.5 µM
GI50 (PC-3 prostate): 12.6 µM
TGI (PC-3 prostate): 48.7 µM
GI50 (OVCAR-3 ovarian): 12.8 µM
TGI (OVCAR-3 ovarian): 39 µM
GI50 (OVCAR-8 ovarian): 9.84 µM
TGI (OVCAR-8 ovarian): 81.7 µM
GI50 (UACC-257 melanoma): 17 µM
TGI (UACC-257 melanoma): 52.1 µM
GI50 (SF-539 CNS): 14.6 µM
TGI (SF-539 CNS): 35.5 µM
GI50 (SW-620 colon): 15.3 µM
TGI (SW-620 colon): > 100 µM
GI50 (SK-MEL-28 melanoma): 22.1 µM
TGI (SK-MEL-28 melanoma): 59.1 µM
GI50 (NCI-H23 lung): 15.2 µM
TGI (NCI-H23 lung): 56 µM
GI50 (MDA-MB-231 breast): 19.1 µM
TGI (MDA-MB-231 breast): 47 µM
GI50 (SK-OV-3 ovarian): 14.6 µM
TGI (SK-OV-3 ovarian): 85.4 µM
GI50 (DU-145 prostate): 13.1 µM
TGI (DU-145 prostate): 59.1 µM
GI50 (UACC-62 melanoma): 9.18 µM
TGI (UACC-62 melanoma): 22 µM
GI50 (ACHN renal): 8.4 µM
TGI (ACHN renal): > 100 µM
GI50 (CCRF-CEM leukemia): 19.5 µM
TGI (CCRF-CEM leukemia): > 100 µM
GI50 (HT29 colon): 15.4 µM
TGI (HT29 colon): 42.9 µM
GI50 (MALME-3M melanoma): 16.3 µM
TGI (MALME-3M melanoma): 41.7 µM
GI50 (MOLT-4 leukemia): 22.6 µM
TGI (MOLT-4 leukemia): 74.1 µM
GI50 (HCT-15 colon): 5.59 µM
TGI (HCT-15 colon): > 100 µM
GI50 (SN12C renal): 18.1 µM
TGI (SN12C renal): 89.9 µM
GI50 (A498 renal): 6.96 µM
TGI (A498 renal): 35.9 µM
GI50 (U251 CNS): 6.84 µM
TGI (U251 CNS): 31.6 µM
GI50 (SK-MEL-5 melanoma): 12 µM
TGI (SK-MEL-5 melanoma): 28 µM
GI50 (RPMI-8226 leukemia): 5.86 µM
TGI (RPMI-8226 leukemia): 26.8 µM
GI50 (BT-549 breast): 13.6 µM
TGI (BT-549 breast): 45 µM
GI50 (HCT-116 colon): 11.6 µM
TGI (HCT-116 colon): > 100 µM
GI50 (K-562 leukemia): 16.8 µM
TGI (K-562 leukemia): > 100 µM
GI50 (MCF7 breast): 20.2 µM
TGI (MCF7 breast): > 100 µM
